Test results: patent US20250326739A1, “CD38 MODULATORS AND USES THEREOF” (Aeovian Pharmaceuticals, Inc., priority 2022, published 2025)

Tests used:
human CD38 = human CD38 (Homo sapiens (Human), UniProt P28907); experiment: NAD+ cyclase activity assay with human recombinant CD38 protein; assay type: biochemical; details: 1.9 nM human CD38, 15.8 μM e-NAD substrate, fluorescence read-out
Procedure: (§1) Example 5: NAD^+ Cydase Activity Assay with Human or Mouse Recombinant CD38 Protein
(§2) The following assay was used to determine the ability of compounds of the invention to inhibit the hydrolysis of NAD^+ by the human or mouse enzyme, CD38.
(§3) Reaction buffer: 40 mM HEPES/NaOH pH 7.5, 250 mM sucrose, 0.01% Tween
(§4) Final concentrations: 0.6 nM mouse CD38 (4947-AC, Bio-Techne GmbH) 1.9 nM human CD38 (AVI2404, Bio-Techne GmbH)
(§5) Substrate: 15.8 μM Nicotinamide 1,N6-ethenoadenine dinucleotide (E-NAD)
(§6) Read-out: Fluorescence intensity (extinction 300 nm/emission 410 nm)
(§7) Required reaction buffer, required CD38 concentration in reaction buffer and required e-NAD concentration in reaction buffer were prepared. Thereafter, 8 μL of CD38 in reaction buffer were added to High Control and compound concentration wells in 384 well plate (Corning #4514, 384 well, nonbinding surface, low volume, round bottom) and 8 μL of reaction buffer to Low Control. Compound dilutions were transferred via pintool technology that transfers 42.5 nL compound dilutions (12-point dose-response with factor three dilutions in 100% DMSO) well-to-well. Plate was subsequently shaken for 15 s at 1450 rpm and sealed for incubation for 30 min at room temperature. Thereafter, 2 μL of e-NAD in reaction buffer were added with Integra Voyager. After shaking for 15 s at 1450 rpm, plate was sealed, and assay signal was measured continuously with PHERAstar® fluorescence intensity module (extinction 300 nm/emission 410 nm).
(§8) Dose-response curves were constructed using twelve-point factor three dilutions in triplicates per plate. High control (full enzyme activity) was set to assay signal of CD38 and e-NAD in presence of vehicle (DMSO) and Low control (full enzyme inhibition) was set to assay signal of e-NAD and vehicle (DMSO) in absence of CD38. For data analysis, fluorescent signal of traces corresponding to each compound concentration and High and Low control was monitored over time. Each run, High Control (full enzyme activity) was fitted to Linear equation via GraphPad Prism to determine CD38 activity from the slope and determine the time interval of linear phase of reaction to account for minor fluctuations. Thereafter, slopes of all compound concentrations were determined via fitting to same linear equation (GraphPad Prism) over the same time interval as determined for High control. Percentage inhibition was calculated via normalization to High and Low Control via the equation: %−inhibition=100*(1−((Sample−Low control)/(High control−Low control))) Half maximal inhibitory concentration (IC50) values are yielded from the inflection point of the corresponding curve by fitting of resulting percentage inhibition values to standard equation (4 Parameter Logistic Model or Sigmoidal Dose-Response Model) via Excel Fit. Unless otherwise stated, fitting of curves was fixed to 100%-inhibition and unlocked for 0%-inhibition.

mouse CD38 = mouse CD38 (Mus musculus (Mouse), UniProt P56528); experiment: NAD+ cyclase activity assay with mouse recombinant CD38 protein; assay type: biochemical; details: 0.6 nM mouse CD38, 15.8 μM e-NAD substrate, fluorescence read-out
Procedure: as §1, §2, §3, §4, §5, §6, §7, §8

mouse CD38, sequence (P56528 whole entry): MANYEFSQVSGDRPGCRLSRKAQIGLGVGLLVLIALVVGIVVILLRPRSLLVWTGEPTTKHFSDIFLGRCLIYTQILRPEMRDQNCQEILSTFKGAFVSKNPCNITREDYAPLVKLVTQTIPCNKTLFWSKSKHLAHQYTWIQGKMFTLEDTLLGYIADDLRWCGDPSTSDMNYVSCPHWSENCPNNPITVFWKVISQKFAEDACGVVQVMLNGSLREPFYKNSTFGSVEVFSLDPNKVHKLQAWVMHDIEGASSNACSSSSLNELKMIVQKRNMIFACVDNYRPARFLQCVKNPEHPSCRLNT
human CD38, sequence (P28907 whole entry): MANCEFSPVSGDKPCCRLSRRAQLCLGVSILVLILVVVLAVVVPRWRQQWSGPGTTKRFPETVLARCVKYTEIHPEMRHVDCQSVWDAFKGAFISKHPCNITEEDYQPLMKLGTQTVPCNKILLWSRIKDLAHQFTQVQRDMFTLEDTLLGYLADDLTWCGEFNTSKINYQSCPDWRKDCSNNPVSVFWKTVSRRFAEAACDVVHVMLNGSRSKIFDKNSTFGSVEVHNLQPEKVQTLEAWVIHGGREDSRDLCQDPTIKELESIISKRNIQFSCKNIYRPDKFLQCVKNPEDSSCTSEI

Row | IC50 (human CD38) [nM] | IC50 (mouse CD38) [nM] | Compound
1 | 100 to 1000 | 1 to 10 | Cc1cc(C(=O)NC2COCC(F)(F)C2)nc(-n2ccnc2)c1 (stereo in doubt) [Compound 67A, (R)—N-(5,5-Ddifluorotetrahydro-2H-pyran-3-yl)-6-(1H-imidazol-1-yl)-4-methylpicolinamide]
2 | 30 to 100 | 1 to 10 | Cc1cc(C(=O)NC2CCN(S(C)(=O)=O)CC2)nc(-n2ccnc2)c1 [Compound 1A, 6-(1H-Imidazol-1-yl)-4-methyl-N-(1-(methylsulfonyl)piperidin-4-yl)picolinamide]
3 | < 30 | 1 to 10 | CCS(=O)(=O)N1CCC(NC(=O)c2cc(C)cc(-n3ccnc3)n2)CC1 [Compound 2A, N-(1-(Ethylsulfonyl)piperidin-4-yl)-6-(1H-imidazol-1-yl)-4-methylpicolinamide]
4 | < 30 | 1 to 10 | Cc1cc(C(=O)NC2CCN(S(=O)(=O)C3CC3)CC2)nc(-n2ccnc2)c1 [Compound 3A, N-(1-(cyclopropylsulfonyl)piperidin-4-yl)-6-(1H-imidazol-1-yl)-4-methylpicolinamide]
5 | < 30 | 1 to 10 | COCCS(=O)(=O)N1CCC(NC(=O)c2cc(C)cc(-n3ccnc3)n2)CC1 [Compound 4A, 6-(1H-Imidazol-1-yl)-N-(1-((2-methoxyethyl)sulfonyl)piperidin-4-yl)-4-methylpicolinamide]
6 | < 30 | 1 to 10 | Cc1cc(C(=O)NC2CCN(S(=O)(=O)C3CCCCC3)CC2)nc(-n2ccnc2)c1 [Compound 5A, N-(1-(Cyclohexylsulfonyl)piperidin-4-yl)-6-(1H-imidazol-1-yl)-4-methylpicolinamide]
7 | < 30 | 1 to 10 | CCCS(=O)(=O)N1CCC(NC(=O)c2cc(C)cc(-n3ccnc3)n2)CC1 [Compound 6A, 6-(1H-Imidazol-1-yl)-4-methyl-N-(1-(propylsulfonyl)piperidin-4-yl)picolinamide]
8 | 30 to 100 | 1 to 10 | Cc1cc(C(=O)NC2CN(S(C)(=O)=O)C2)nc(-n2ccnc2)c1 [Compound 7A, 6-(1H-Imidazol-1-yl)-4-methyl-N-(1-(methylsulfonyl)azetidin-3-yl)picolinamide]
9 | < 30 | 1 to 10 | Cc1cc(C(=O)NC2CCC(F)(F)CC2)nc(-n2ccnc2)c1 [Compound 8A, N-(4,4-Difluorocyclohexyl)-6-(1H-imidazol-1-yl)-4-methylpicolinamide]
10 | < 30 | 1 to 10 | Cc1cc(C(=O)NC2CCCOC2)nc(-n2ccnc2)c1 (stereo not shown) [Compound 9A, 6-(1H-Imidazol-1-yl)-4-methyl-N-(tetrahydro-2H-pyran-3-yl)picolinamide]
11 | 30 to 100 | 1 to 10 | CC(=O)N1CCC(NC(=O)c2cc(C)cc(-n3ccnc3)n2)CC1 [Compound 10A, N-(1-Acetylpiperidin-4-yl)-6-(1H-imidazol-1-yl)-4-methylpicolinamide]
12 | > 1000 | 1 to 10 | Cc1cc(C(=O)NC2CCNCC2)nc(-n2ccnc2)c1 [Compound 11A, 6-(1H-Imidazol-1-yl)-4-methyl-N-(piperidin-4-yl)picolinamide]
13 | 30 to 100 | 1 to 10 | Cc1cc(C(=O)NC2CCC2)nc(-n2ccnc2)c1 [Compound 12A, N-Cyclobutyl-6-(1H-imidazol-1-yl)-4-methylpicolinamide]
14 | 30 to 100 | 1 to 10 | CCCC(=O)N1CCC(NC(=O)c2cc(C)cc(-n3ccnc3)n2)CC1 [Compound 13A, N-(1-Butyrylpiperidine-4-yl)-6-(1H-imidazol-1-yl)-4-methylpicolinamide]
15 | 100 to 1000 | 1 to 10 | CNS(=O)(=O)N1CCC(NC(=O)c2cc(C)cc(-n3ccnc3)n2)CC1 [Compound 14A, 6-(1H-Imidazol-1-yl)-4-methyl-N-(1-(N-methylsulfamoyl)piperidin-4-yl)picolinamide]
16 | 30 to 100 | 1 to 10 | COc1cc(C(=O)NC2CCN(S(C)(=O)=O)CC2)nc(-n2ccnc2)c1 [Compound 15A, 6-(1H-Imidazol-1-yl)-4-methoxy-N-(1-(methylsulfonyl)piperidin-4-yl)picolinamide]

Row | IC50 (human CD38) [nM] | IC50 (mouse CD38) [nM] | Compound
17 | 30 to 100 | 1 to 10 | CS(=O)(=O)N1CCC(NC(=O)c2cccc(-n3ccnc3)n2)CC1 [Compound 16A, 6-(1H-Imidazol-1-yl)-N-(1-(methylsulfonyl)piperidin-4-yl)picolinamide]
18 | < 30 | 1 to 10 | Cc1cc(C(=O)NC2CCN(S(=O)(=O)N(C)C)CC2)nc(-n2ccnc2)c1 [Compound 18A, N-(1-(N,N-Dimethylsulfamoyl)piperidin-4-yl)-6-(1H-imidazol-1-yl)-4-methylpicolinamide]
19 | 30 to 100 | 1 to 10 | Cc1cc(C(=O)NC2CCN(C(=O)CN3CCOCC3)CC2)nc(-n2ccnc2)c1 [Compound 19A, 6-(1H-Imidazol-1-yl)-4-methyl-N-(1-(2-morpholinoacetyl)piperidin-4-yl)picolinamide]
20 | 30 to 100 | 1 to 10 | COCCC(=O)N1CCC(NC(=O)c2cc(C)cc(-n3ccnc3)n2)CC1 [Compound 20A, 6-(1H-Imidazol-1-yl)-N-(1-(3-methoxypropanoyl)piperidin-4-yl)-4-methylpicolinamide]
21 | 30 to 100 | 1 to 10 | Cc1cc(C(=O)NC2CCN(C(=O)N(C)C)CC2)nc(-n2ccnc2)c1 [Compound 21A, N-(1-(Dimethylcarbamoyl)piperidin-4-yl)-6-(1H-imidazol-1-yl)-4-methylpicolinamide]
22 | < 30 | 1 to 10 | CNC(=O)N1CCC(NC(=O)c2cc(C)cc(-n3ccnc3)n2)CC1 [Compound 22A, 6-(1H-Imidazol-1-yl)-4-methyl-N-(1-(methylcarbamoyl)piperidin-4-yl)picolinamide]
23 | 30 to 100 | 1 to 10 | Cc1cc(C(=O)NC2CCS(=O)(=O)C2)nc(-n2ccnc2)c1 (stereo not shown) [Compound 23A, N-(1,1-Dioxidotetrahydrothiophen-3-yl)-6-(1H-imidazol-1-yl)-4-methylpicolinamide]
24 | 100 to 1000 | 1 to 10 | Cc1cc(C(=O)NC2CCOC(C)(C)C2)nc(-n2ccnc2)c1 (stereo not shown) [Compound 24A, N-(2,2-Dimethyltetrahydro-2H-pyran-4-yl)-6-(1H-imidazol-1-yl)-4-methylpicolinamide]
25 | 30 to 100 | 1 to 10 | Cc1cc(C(=O)NC2COCCC2(F)F)nc(-n2ccnc2)c1 (stereo not shown) [Compound 25A, N-(4,4-Difluorotetrahydro-2H-pyran-3-yl)-6-(1H-imidazol-1-yl)-4-methylpicolinamide]
26 | 30 to 100 | 1 to 10 | Cc1cc(C(=O)NC2COCC(F)(F)C2)nc(-n2ccnc2)c1 (stereo not shown) [Compound 26A, N-(5,5-Difluorotetrahydro-2H-pyran-3-yl)-6-(1H-imidazol-1-yl)-4-methylpicolinamide]
27 | 100 to 1000 | 1 to 10 | Cc1cc(C(=O)NC2CC3CCC(C2)O3)nc(-n2ccnc2)c1 (stereo not shown) [Compound 28A, N-(8-Oxabicyclo[3.2.1]octan-3-yl)-6-(1H-imidazol-1-yl)-4-methylpicolinamide]
28 | 30 to 100 | 1 to 10 | Cc1cc(C(=O)NC2CCC(C)(C)OC2)nc(-n2ccnc2)c1 (stereo not shown) [Compound 29A, N-(6,6-Dimethyltetrahydro-2H-pyran-3-yl)-6-(1H-imidazol-1-yl)-4-methylpicolinamide]
29 | 30 to 100 | 1 to 10 | Cc1cc(C(=O)NC2CCOC(C)C2)nc(-n2ccnc2)c1 (stereo not shown) [Compound 30A, 6-(1H-Imidazol-1-yl)-4-methyl-N-(2-methyltetrahydro-2H-pyran-4-yl)picolinamide]
30 | 30 to 100 | 1 to 10 | Cc1cc(C(=O)NC2C3COCC32)nc(-n2ccnc2)c1 (stereo not shown) [Compound 31A, N-(3-Oxabicyclo[3.1.0]hexan-6-yl)-6-(1H-imidazol-1-yl)-4-methylpicolinamide]
31 | 30 to 100 | 1 to 10 | Cc1cc(C(=O)NC2CCOCC2)nc(-n2ccnc2)c1 [Compound 32A, 6-(1H-Imidazol-1-yl)-4-methyl-N-(tetrahydro-2H-pyran-4-yl)picolinamide]

Row | Compound | IC50 (human CD38) [nM] | IC50 (mouse CD38) [nM]
32 | Cc1cc(C(=O)NC2CCOCC2(C)C)nc(-n2ccnc2)c1 (stereo not shown) [Compound 27A, N-(3,3-Dimethyltetrahydro-2H-pyran-4-yl)-6-(1H-imidazol-1-yl)-4-methylpicolinamide] | 100 to 1000 | 10 to 100
